The target in the first assay is PD-1/PD-L1 interaction (PD-1-Ig / PD-L1-His) (Homo sapiens (Human), UniProt Q9NZQ7). Put plainly: PD-1/PD-L1 Homogenous Time-Resolved Fluorescence (HTRF) binding assay. Conditions: PD-1/PD-L1 HTRF binding assay; value given as number; read-out: Range or IC50. An excerpt:
The ability of the compounds of formula (I) to bind to PD-L1 was investigated using a PD-1/PD-L1 Homogenous Time-Resolved Fluorescence (HTRF) binding assay.
Homogenous Time-Resolved Fluorescence (HTRF) Binding Assay.
The interaction of PD-1 and PD-L1 can be assessed using soluble, purified preparations of the extracellular domains of the two proteins. The PD-1 and PD-L1 protein extracellular domains were expressed as fusion proteins with detection tags, for PD-1, the tag was the Fc portion of Immunoglobulin (PD-1-Ig) and for PD-L1 it was the 6 histidine motif (PD-L1-His). All binding studies were performed in an HTRF assay buffer consisting of dPBS supplemented with 0.1% […] bovine serum albumin and 0.05% (v/v) Tween-20. For the h/PD-L1-His binding assay, inhibitors were pre-incubated with PD-L1-His (10 nM final) for 15 m in 4 μl of assay buffer, followed by addition of PD-1-Ig (20 nM final) in 1 μl of assay buffer and further incubation for 15 m. HTRF detection was achieved using europium crypate-labeled anti-Ig (1 nM final) and allophycocyanin (APC) labeled anti-His (20 nM final). Antibodies were diluted in HTRF detection buffer and 5 μl was dispensed on top of the binding reaction. The reaction mixture was allowed to equilibrate for 30 minutes and the resulting signal (665 nm/620 nm ratio) was obtained using an EnVision fluorometer. Additional binding assays were established between the human proteins PD-1-Ig/PD-L2-His (20 & 5 nM, respectively) and CD80-His/PD-L1-Ig (100 & 10 nM, respectively).
Recombinant Proteins. Human PD-1 (25-167) with a C-terminal human Fc domain of immunoglobulin G (Ig) epitope tag [hPD-1 (25-167)-3S-IG] and human PD-L1 (18-239) with a C-terminal His epitope tag [hPD-L1(18-239)-TVMV-His] were expressed in HEK293T cells and purified sequentially by ProteinA affinity chromatography and size exclusion chromatography. Human PD-L2-His and CD80-His was obtained through commercial sources.
Ranges are as follows: A=0.001 to 0.010 micromolar; B=0.011 to 0.150 micromolar; C=0.151 to 10 micromolar.
On the technique in general: Time-resolved FRET reads energy transfer from a long-lived donor to a nearby acceptor.
Sequence of PD-1/PD-L1 interaction (PD-1-Ig / PD-L1-His) (Q9NZQ7 other isoform, or with tags, fused parts or gaps): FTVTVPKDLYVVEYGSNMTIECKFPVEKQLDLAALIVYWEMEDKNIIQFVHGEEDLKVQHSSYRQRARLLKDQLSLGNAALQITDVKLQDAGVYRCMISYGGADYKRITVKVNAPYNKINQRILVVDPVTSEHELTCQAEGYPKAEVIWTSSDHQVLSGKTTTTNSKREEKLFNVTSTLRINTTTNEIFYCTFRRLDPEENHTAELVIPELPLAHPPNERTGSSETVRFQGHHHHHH
Take `Cc1c(COc2cc(OCc3cncc(C#N)c3)c(CN[C@](C)(CO)C(=O)O)cc2Cl)cccc1-c1ccc2[nH]cnc2c1` [Example 1024, (R)-2-((4-((3-(1H-benzo[d]imidazol-5-yl)-2-methylbenzyl)oxy)-5-chloro-2-((5-cyanopyridin-3-yl)methoxy)benzyl)amino)-3-hydroxy-2-methylpropanoic acid]: the IC50 was determined as 0.135 µM.
For `Cc1c(COc2cc(OCc3cncc(C#N)c3)c(CN[C@](C)(CO)C(=O)O)cc2Cl)cccc1-c1cnc2ccc(Br)cc2n1` [Example 1010, (R)-2-((4-((3-(7-bromoquinoxalin-2-yl)-2-methylbenzyl)oxy)-5-chloro-2-((5-cyanopyridin-3-yl)methoxy)benzyl)amino)-3-hydroxy-2-methylpropanoic acid], the concentration for half-maximal inhibition (IC50) stood at 1.57 µM.

Staying with this assay, now noted: PD-1/PD-L1 HTRF binding assay; value given as range class; read-out: Range or IC50.
On to `Cc1c(COc2cc(OCc3cncc(C#N)c3)c(CN[C@](C)(CO)C(=O)O)cc2Cl)cccc1-c1ccc2occc2c1` [Example 1013, (R)-2-((4-((3-(benzofuran-5-yl)-2-methylbenzyl)oxy)-5-chloro-2-((5-cyanopyridin-3-yl)methoxy)benzyl)amino)-3-hydroxy-2-methylpropanoic acid], for which the IC50 was in the range of 0.011 to 0.15 µM.
On to `Cc1c(COc2cc(OCc3cncc(C#N)c3)c(CN[C@](C)(CO)C(=O)O)cc2Cl)cccc1-c1ccc2ccoc2c1` [Example 1019, (R)-2-((4-((3-(benzofuran-6-yl)-2-methylbenzyl)oxy)-5-chloro-2-((5-cyanopyridin-3-yl)methoxy)benzyl)amino)-3-hydroxy-2-methylpropanoic acid], for which the IC50 lay within 0.001 to 0.01 µM.
Regarding `Cc1c(COc2cc(OCc3cncc(C#N)c3)c(CN3CCCC[C@H]3C(=O)O)cc2Cl)cccc1-c1cnc2ccccc2c1` [Example 1003, (S)-1-(5-chloro-2-((5-cyanopyridin-3-yl)methoxy)-4-((2-methyl-3-(quinolin-3-yl)benzyl)oxy)benzyl) piperidine-2-carboxylic acid], the IC50 fell in the range of 0.151 to 10 µM.
Same read-out and setting: the value for `CCC(CO)(CO)NCc1cc(Cl)c(OCc2nccc(-c3cccc(OCCCN4CCCCC4)c3C)c2C)cc1OCc1cncc(C#N)c1` [Example 2016, 5-((4-chloro-2-(((1-hydroxy-2-(hydroxymethyl)butan-2-yl)amino)methyl)-5-((3-methyl-4-(2-methyl-3-(3-(piperidin-1-yl)propoxy)phenyl)pyridin-2-yl)methoxy)phenoxy)methyl)nicotinonitrile] was 0.001 to 0.01 µM; that for `Cc1c(COc2cc(OCc3cncc(C#N)c3)c(CN[C@](C)(CO)C(=O)O)cc2Cl)cccc1-c1ccc2ccncc2c1` [Example 1008, (R)-2-((5-chloro-2-((5-cyanopyridin-3-yl)methoxy)-4-((3-(isoquinolin-7-yl)-2-methylbenzyl)oxy)benzyl)amino)-3-hydroxy-2-methylpropanoic acid] was 0.011 to 0.15 µM; that for `Cc1c(COc2cc(OCc3cncc(C#N)c3)c(CN[C@@](C)(CO)C(=O)O)cc2Cl)cccc1-c1cccn(CCCN2CC[C@@H](O)C2)c1=O` [Example 1037, (S)-2-((5-chloro-2-((5-cyanopyridin-3-yl)methoxy)-4-((3-(1-(3-((R)-3-hydroxypyrrolidin-1-yl)propyl)-2-oxo-1,2-dihydropyridin-3-yl)-2-methylbenzyl)oxy)benzyl)amino)-3-hydroxy-2-methylpropanoic acid] was 0.151 to 10 µM.
The same measure, in the same setting: the value for `Cc1c(COc2cc(OCc3cncc(C#N)c3)c(CN3CCCC[C@H]3C(=O)O)cc2Cl)cccc1-c1cccn(CCCN2CC[C@@H](O)C2)c1=O` [Example 1039, (S)-1-(5-chloro-2-((5-cyanopyridin-3-yl)methoxy)-4-((3-(1-(3-((R)-3-hydroxypyrrolidin-1-yl)propyl)-2-oxo-1,2-dihydropyridin-3-yl)-2-methylbenzyl)oxy)benzyl)piperidine-2-carboxylic acid] was 0.151 to 10 µM.
On to `Cc1c(COc2cc(OCc3cncc(C#N)c3)c(CN[C@](C)(CO)C(=O)O)cc2Cl)cccc1-c1cc2ccccc2cn1` [Example 1007, (R)-2-((5-chloro-2-((5-cyanopyridin-3-yl)methoxy)-4-((3-(isoquinolin-3-yl)-2-methylbenzyl)oxy)benzyl)amino)-3-hydroxy-2-methylpropanoic acid], for which the IC50 was 0.151 to 10 µM.
In the case of `Cc1c(COc2cc(OCc3cncc(C#N)c3)c(CN3CCCC[C@H]3C(=O)O)cc2Cl)cccc1-c1cccc(OCCCN2CC[C@@H](O)C2)n1` [Example 1030, (S)-1-(5-chloro-2-((5-cyanopyridin-3-yl)methoxy)-4-((3-(6-(3-((R)-3-hydroxypyrrolidin-1-yl)propoxy)pyridin-2-yl)-2-methylbenzyl)oxy)benzyl)piperidine-2-carboxylic acid], the IC50 was in the range of 0.151 to 10 µM.
For `Cc1c(COc2cc(OCc3cncc(C#N)c3)c(CN3CCCC[C@H]3C(=O)O)cc2Cl)cccc1-c1ccc2nccnc2c1` [Example 1032, (S)-1-(5-chloro-2-((5-cyanopyridin-3-yl)methoxy)-4-((2-methyl-3-(quinoxalin-6-yl)benzyl)oxy)benzyl)piperidine-2-carboxylic acid], the IC50 lay in the range of 0.011 to 0.15 µM.
On the same count and under the same terms, the value for `Cc1nn(-c2cccc(COc3cc(OCc4cncc(C#N)c4)c(CNCCN4CC[C@@H](O)C4)cc3Cl)c2C)c(C)c1CNCCN1CC[C@@H](O)C1` [Example 2006, 5-((4-chloro-2-(((2-((R)-3-hydroxypyrrolidin-1-yl)ethyl)amino)methyl)-5-((3-(4-(((2-((R)-3-hydroxypyrrolidin-1-yl)ethyl)amino)methyl)-3,5-dimethyl-1H-pyrazol-1-yl)-2-methylbenzyl)oxy)phenoxy)methyl)nicotinonitrile] was 0.151 to 10 µM; that for `Cc1c(COc2cc(OCc3cncc(C#N)c3)c(CN[C@@](C)(CO)C(=O)O)cc2Cl)cccc1-c1ccc2nccnc2c1` [Example 1036, (S)-2-((5-chloro-2-((5-cyanopyridin-3-yl)methoxy)-4-((2-methyl-3-(quinoxalin-6-yl)benzyl)oxy)benzyl)amino)-3-hydroxy-2-methylpropanoic acid] was 0.001 to 0.01 µM; that for `Cc1c(OCCCN2CCCCC2)cccc1-c1ccnc(COc2cc(OCc3cncc(C#N)c3)c(CN[C@@](C)(CO)C(=O)O)cc2Cl)c1C` [Example 2015, (S)-2-((5-chloro-2-((5-cyanopyridin-3-yl)methoxy)-4-((3-methyl-4-(2-methyl-3-(3-(piperidin-1-yl)propoxy)phenyl)pyridin-2-yl)methoxy)benzyl)amino)-3-hydroxy-2-methylpropanoic acid] was 0.001 to 0.01 µM.
Still for that read-out and setting: under `Cc1c(COc2cc(OCc3cncc(C#N)c3)c(CN3CCC[C@@]3(C)C(=O)O)cc2Cl)cccc1-c1ccc2ccoc2c1` [Example 1020, (S)-1-(4-((3-(benzofuran-6-yl)-2-methylbenzyl)oxy)-5-chloro-2-((5-cyanopyridin-3-yl)methoxy)benzyl)-2-methylpyrrolidine-2-carboxylic acid] stands 0.001 to 0.01 µM; under `Cc1c(COc2cc(OCc3cncc(C#N)c3)c(CNC(C)(C)C(=O)O)cc2Cl)cccc1-c1ccc2ccoc2c1` [Example 1018, 2-((4-((3-(benzofuran-6-yl)-2-methylbenzyl)oxy)-5-chloro-2-((5-cyanopyridin-3-yl)methoxy)benzyl)amino)-2-methylpropanoic acid], 0.011 to 0.15 µM.
On the same count and under the same terms, under `Cc1c(COc2cc(OCc3cncc(C#N)c3)c(CN[C@](C)(CO)C(=O)O)cc2Cl)cccc1-c1ccc2ncccc2c1` [Example 1005, (R)-2-((5-chloro-2-((5-cyanopyridin-3-yl)methoxy)-4-((2-methyl-3-(quinolin-6-yl)benzyl)oxy)benzyl)amino)-3-hydroxy-2-methylpropanoic acid] stands 0.151 to 10 µM.
Consider `Cc1nn(-c2cccc(COc3cc(OCc4cncc(C#N)c4)c(CN4CC[C@@H](O)C4)cc3Cl)c2C)c(C)c1CN1CC[C@@H](O)C1` [Example 2007, 5-((4-chloro-2-(((R)-3-hydroxypyrrolidin-1-yl)methyl)-5-((3-(4-(((R)-3-hydroxypyrrolidin-1-yl)methyl)-3,5-dimethyl-1H-pyrazol-1-yl)-2-methylbenzyl)oxy)phenoxy)methyl)nicotinonitrile], for which the IC50 was 0.151 to 10 µM.
On the same count and under the same terms, the value for `Cc1c(COc2cc(OCc3cncc(C#N)c3)c(CO)cc2Cl)cccc1-c1cccc(OCCCN2CC[C@@H](O)C2)n1` [Example 1031, (R)-5-((4-chloro-2-(hydroxymethyl)-5-((3-(6-(3-(3-hydroxypyrrolidin-1-yl)propoxy)pyridin-2-yl)-2-methylbenzyl)oxy)phenoxy)methyl)nicotinonitrile] was 0.151 to 10 µM.

As a reminder, the IC50 is the concentration at which inhibition is half-maximal.

(Values after patent publication US10590105B2, “1,3-dihydroxy-phenyl derivatives useful as immunomodulators” (BRISTOL-MYERS SQUIBB COMPANY, priority 2016, dated 2020).)
